Consider 15 compounds from US20240360146A1, “BRUTON'S TYROSINE KINASE AND MUTANT DEGRADER, COMPOSITION AND APPLICATION THEREOF” (HANGZHOU HEALZEN THERAPEUTICS CO., LTD., priority 2021, published 2024).

Assay type in all cases: cell-based
In one test the test system is Mino cells. The test can be described thus: Inhibitory activity on Mino cell proliferation (MTS). The conditions noted are these: Homo sapiens, 168 h incubation. The protocol:
(§1) The anti-tumor efficacy of the compounds was tested by measuring their inhibitory effects on OCI-LY10 and Mino cell proliferation. OCI-LY10 and Mino cells were cultured in RPMI-1640 medium containing 10% fetal calf serum. OCI-LY10 and Mino cells were digested, inoculated in a 96-well plate at a cell concentration of 10000 cells/well, and incubated overnight at 37° C., 5% CO2. Compounds of different concentrations (1000 nM, 4-fold dilution, 8 points) were added to the 96-well plate and incubated for 72 h (LY10) or 168 h (Mino) at 37° C. and 5% CO2, and then 20 uL of MTS was added to each well. After incubation for 2 h, 25 μl of 10% SDS was added to each well to terminate the reaction. The absorbance at 490 nm and 650 nm were measured with a microplate reader. IC50 was calculated using GraphPad Prism 5.0.

A further test concerns the target T1, BTK (Homo sapiens, UniProt Q06187).
T1 construct: endogenous in cells; host or cells: Mino cells
The test can be described thus: BTK degradation activity test in Mino cells. The note with it: 16 h incubation, Western blot or Elisa. The essentials: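 DC50 derived by curve fitting of BTK degradation rates versus untreated control across compound concentrations. Mino cells were exposed for 16 h; BTK levels in lysates, normalised via BCA protein, measured by Western blot or ELISA.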
(Immunoblotting shows a protein as a band on a membrane.)

The test system of another test is OCI-LY10 cells. The test can be described thus: Inhibitory activity on OCI-LY10 cell proliferation (MTS). The conditions noted are these: Homo sapiens, 72 h. The protocol:
as §1

As a reminder, the IC50 is the concentration at which inhibition is half-maximal. A higher IC50 goes with weaker potency in that assay. As a reminder, the DC50 is the midpoint of the concentration-degradation curve.

Structures are written as SMILES.

T1 sequence (Q06187 whole entry): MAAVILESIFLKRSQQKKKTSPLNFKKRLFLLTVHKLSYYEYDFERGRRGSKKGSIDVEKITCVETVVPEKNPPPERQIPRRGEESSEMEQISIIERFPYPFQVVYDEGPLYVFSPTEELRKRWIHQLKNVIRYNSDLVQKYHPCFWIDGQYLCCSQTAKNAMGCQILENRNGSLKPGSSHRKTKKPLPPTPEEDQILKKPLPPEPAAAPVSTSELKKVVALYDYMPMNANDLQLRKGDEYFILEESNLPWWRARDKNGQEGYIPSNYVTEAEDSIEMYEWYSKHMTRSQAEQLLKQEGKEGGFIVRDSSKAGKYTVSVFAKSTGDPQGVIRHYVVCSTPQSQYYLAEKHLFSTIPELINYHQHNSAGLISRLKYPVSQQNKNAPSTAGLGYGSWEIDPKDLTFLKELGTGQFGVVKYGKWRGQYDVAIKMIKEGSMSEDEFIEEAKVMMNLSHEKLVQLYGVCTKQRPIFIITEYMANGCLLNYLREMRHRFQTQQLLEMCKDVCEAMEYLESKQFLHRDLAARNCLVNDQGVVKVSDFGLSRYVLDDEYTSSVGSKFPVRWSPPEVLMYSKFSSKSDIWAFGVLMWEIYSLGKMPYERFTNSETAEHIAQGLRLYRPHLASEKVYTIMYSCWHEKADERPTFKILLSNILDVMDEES

With `CN1CCN([C@@H]2CCCN(c3ncc(C(N)=O)c(Nc4ccc(N5CCN(CC6CCN(c7ccc8c(c7)C(=O)N(C7CCC(=O)NC7=O)C8=O)C6)CC5)cc4)n3)C2)C1=O` (stereo partly drawn) [Compound 115, 4-((4-(4-((1-(2-(2,6-dioxopiperidin-3-yl)-1,3-dioxoisoindolin-5-yl)pyrrolidin-3-yl)methyl)piperazin-1-yl)phenyl)amino)-2-((R)-3-(3-methyl-2-oxoimidazolin-1-yl)piperidin-1-yl)pyrimidin-5-carboxamide], the IC50 in the test with Mino cells turned out to be 5.97 nM; in the test on OCI-LY10 cells it was 0.59 nM. In addition, the DC50 on BTK was less than 1 nM.
The corresponding values for `CN1CCN([C@@H]2CCCN(c3ncc(C(N)=O)c(Nc4ccc(C5CCN(CC6CCN(c7ccc8c(c7)C(=O)N(C7CCC(=O)NC7=O)C8=O)C6)CC5)cc4)n3)C2)C1=O` (stereo partly drawn) [Compound 116, 4-((4-(1-((1-(2-(2,6-dioxopiperidin-3-yl)-1,3-dioxoisoindolin-5-yl)pyrrolidin-3-yl)methyl)piperidin-4-yl)phenyl)amino)-2-((R)-3-(3-methyl-2-oxoimidazolin-1-yl)piperidin-1-yl)pyrimidin-5-carboxamide] are 1.34 nM, 0.11 nM and less than 1 nM.
Take `CN1CCN([C@@H]2CCCN(c3ncc(C(N)=O)c(Nc4ccc(C5CCN(CC6CCN(c7ccc8c(c7)C(=O)N(C7CCC(=O)NC7=O)C8=O)CC6)CC5)cc4)n3)C2)C1=O` (stereo partly drawn) [Compound 117, 4-((4-(1-((1-(2-(2,6-dioxopiperidin-3-yl)-1,3-dioxoisoindolin-5-yl)piperidin-4-yl)methyl)piperidin-4-yl)phenyl)amino)-2-((R)-3-(3-methyl-2-oxoimidazolin-1-yl)piperidin-1-yl)pyrimidin-5-carboxamide]: the IC50 in the test with Mino cells came out at 3.08 nM; in the test with OCI-LY10 cells, 0.33 nM. Moreover, the DC50 on BTK was less than 1 nM.
`CN1CCN(C2CC3CC2N(c2cnc(C(N)=O)c(Nc4ccc(C5CCN(CC6CCN(c7ccc8c(c7)C(=O)N(C7CCC(=O)NC7=O)C8=O)CC6)CC5)cc4)n2)C3)C1=O` (centres unmarked) [Compound 118, 3-((4-(1-((1-(2-(2,6-dioxopiperidin-3-yl)-1,3-dioxoisoindolin-5-yl)piperidin-4-yl)methyl)piperidin-4-yl)phenyl)amino)-5-(6-(3-methyl-2-oxoimidazolin-1-yl)-2-azabicyclo[2.2.1]heptan-2-yl)pyrazin-2-carboxamide]: the IC50 was 10.7 nM in the test with Mino cells and 0.27 nM with OCI-LY10 cells. In addition, on BTK, the DC50 was less than 1 nM.
The corresponding values for `CN1CCN([C@@H]2CCCN(c3nnc(C(N)=O)c(Nc4ccc(N5CCC(CN6CCN(c7ccc8c(c7)C(=O)N(C7CCC(=O)NC7=O)C8=O)CC6)CC5)cc4)n3)C2)C1=O` (stereo partly drawn) [Compound 119, 5-((4-(4-((4-(2-(2,6-dioxopiperidin-3-yl)-1,3-dioxoisoindolin-5-yl)piperazin-1-yl)methy 1)piperidin-1-yl)phenyl)amino)-3-((R)-3-(3-methyl-2-oxoimidazolin-1-yl)piperidin-1-yl)-1,2,4-triazin-6-carboxamide] are 8.09 nM, 0.38 nM and less than 1 nM.
Take `CN1CCN([C@@H]2CCCN(c3nnc(C(N)=O)c(Nc4ccc(C5CCN(CC6(C)CCN(c7ccc8c(c7)C(=O)N(C7CCC(=O)NC7=O)C8=O)C6)CC5)cc4)n3)C2)C1=O` (stereo partly drawn) [Compound 120, 5-((4-(1-((1-(2-(2,6-dioxopiperidin-3-yl)-1,3-dioxoisoindolin-5-yl)-3-methylpyrrolidin-3-yl)methyl)piperidin-4-yl)phenyl)amino)-3-((R)-3-(3-methyl-2-oxoimidazolin-1-yl)piperidin-1-yl)-1,2,4-triazin-6-carboxamide]: the IC50 is 1.76 nM with Mino cells and 0.21 nM in the test with OCI-LY10 cells. This compound returned a DC50 on BTK of less than 1 nM.
The corresponding values for `CN1CCN([C@@H]2CCCN(c3nnc(C(N)=O)c(Nc4ccc(C5CCN(CC6(F)CCN(c7ccc8c(c7)C(=O)N(C7CCC(=O)NC7=O)C8=O)C6)CC5)cc4)n3)C2)C1=O` (stereo partly drawn) [Compound 121, 5-((4-(1-((1-(2-(2,6-dioxopiperidin-3-yl)-1,3-dioxoisoindolin-5-yl)-3-fluoropyrrolidin-3-yl)methyl)piperidin-4-yl)phenyl)amino)-3-((R)-3-(3-methyl-2-oxoimidazolin-1-yl)piperidin-1-yl)-1,2,4-triazin-6-carboxamide] are 3.75 nM, 0.74 nM and less than 1 nM.
Regarding `CN1CCN([C@@H]2CCCN(c3nnc(C(N)=O)c(Nc4ccc(C5CCN(CC6CCN(c7ccc8c(c7)C(=O)N(C7CCC(=O)NC7=O)C8=O)C6)CC5)cc4)n3)C2)C1=O` (stereo partly drawn) [Compound 124, 5-((4-(1-((1-(2-(2,6-dioxopiperidin-3-yl)-1,3-dioxoisoindolin-5-yl)pyrrolidin-3-yl)methyl)piperidin-4-yl)phenyl)amino)-3-((R)-3-(3-methyl-2-oxoimidazolin-1-yl)piperidin-1-yl)-1,2,4-triazin-6-carboxamide], the IC50 is 4.95 nM with Mino cells and less than 0.26 nM in the test on OCI-LY10 cells. The DC50 on BTK was less than 1 nM.
In the same order, the values of `CN1CCN([C@@H]2CCCN(c3nnc(C(N)=O)c(Nc4ccc(C5CCN(C(=O)C6CCN(c7ccc8c(c7)C(=O)N(C7CCC(=O)NC7=O)C8=O)C6)CC5)cc4)n3)C2)C1=O` (stereo partly drawn) [Compound 127, 5-((4-(1-(1-(2-(2,6-dioxopiperidin-3-yl)-1,3-dioxoisoindolin-5-yl)pyrrolidin-3-carbonyl)piperidin-4-yl)phenyl)amino)-3-((R)-3-(3-methyl-2-oxoimidazolin-1-yl)piperidin-1-yl)-1,2,4-triazin-6-carboxamide] are 2.04 nM, 0.39 nM and less than 1 nM.
The corresponding values for `CN1CCN([C@@H]2CCCN(c3nnc(C(N)=O)c(Nc4ccc(C5CCN(CC6CCN(c7ccc8c(c7)C(=O)N(C7CCC(=O)NC7=O)C8=O)CC6)CC5)c(F)c4)n3)C2)C1=O` (stereo partly drawn) [Compound 129, 5-((4-(1-((1-(2-(2,6-dioxopiperidin-3-yl)-1,3-dioxoisoindolin-5-yl)piperidin-4-yl)methyl)piperidin-4-yl)-3-fluorophenyl)amino)-3-((R)-3-(3-methyl-2-oxoimidazolin-1-yl)piperidin-1-yl)-1,2,4-triazin-6-carboxamide] are 3.09 nM, 0.14 nM and less than 1 nM.
In the same order, the values of `CN1C(=O)N([C@@H]2CCCN(c3nnc(C(N)=O)c(Nc4ccc(C5CCN(CC6CCN(c7ccc8c(c7)C(=O)N(C7CCC(=O)NC7=O)C8=O)CC6)CC5)cc4)n3)C2)CC12CC2` (stereo partly drawn) [Compound 138, 5-((4-(1-((1-(2-(2,6-dioxopiperidin-3-yl)-1,3-dioxoisoindolin-5-yl)piperidin-4-yl)methyl)piperidin-4-yl)phenyl)amino)-3-((R)-3-(4-methyl-5-oxo-4,6-diazaspiro[2.4]heptan-6-yl)piperidin-1-yl)-1,2,4-triazin-6-carboxamide] are 3.11 nM, 0.08 nM and less than 1 nM.
The compound `CN1CCN([C@@H]2CCCN(c3nnc(C(N)=O)c(Nc4ccc(N5CCN(CC#Cc6ccc(C(=O)NC7CCC(=O)NC7=O)nc6)CC5)c(F)c4)n3)C2)C1=O` (stereo partly drawn) [Compound 224, 5-((4-(4-(3-(6-((2,6-dioxopiperidin-3-yl)carbamoyl)pyridin-3-yl)propan-2-yn-1-yl)piperazin-1-yl)-3-fluorophenyl)amino)-3-((R)-3-(3-methyl-2-oxoimidazolidin-1-yl)piperidin-1-yl)-1,2,4-triazin-6-carboxamide] gave a half-maximal degradation concentration (DC50) on BTK of less than 1 nM. This compound showed a concentration for half-maximal inhibition (IC50) with OCI-LY10 cells of 2.25 nM.
`CN1CCN([C@@H]2CCCN(c3nnc(C(N)=O)c(Nc4ccc(N5CCN(CC#Cc6ccc7c(c6)n(C)c(=O)n7C6CCC(=O)NC6=O)CC5)c(F)c4)n3)C2)C1=O` (stereo partly drawn) [Compound 227, 5-((4-(4-(3-(1-(2,6-dioxopiperidin-3-yl)-3-methyl-2-oxo-2,3-dihydro-1H-benzo[d]imidazol-5-yl)propan-2-yn-1-yl)piperazin-1-yl)-3-fluorophenyl)amino)-3-((R)-3-(3-methyl-2-oxoimidazolidin-1-yl)piperidin-1-yl)-1,2,4-triazin-6-carboxamide]: the DC50 on BTK is less than 1 nM. Moreover, in the test with OCI-LY10 cells, the IC50 was 0.27 nM.
In the same order, the values of `CN1CCN([C@@H]2CCCN(c3nnc(C(N)=O)c(Nc4ccc(C5CCN(CC6CCN(c7ccc(N8CCC(=O)NC8=O)cc7)CC6)CC5)c(F)c4)n3)C2)C1=O` [Compound 234, (R)-5-((4-(1-((1-(4-(2,4-dioxotetrahydropyrimidin-1(2H)-yl)phenyl)piperidin-4-yl)methyl)piperidin-4-yl)-3-fluorophenyl)amino)-3-(3-(3-methyl-2-oxoimidazolidin-1-yl)piperidin-1-yl)-1,2,4-triazin-6-carboxamide] are less than 1 nM and 1.78 nM.
The compound `Cc1cc(N2CCC(CN3CCC(c4ccc(Nc5nc(N6CCC[C@@H](N7CCN(C)C7=O)C6)nnc5C(N)=O)cc4)CC3)CC2)ccc1N1CCC(=O)NC1=O` [Compound 236, (R)-5-((4-(1-((1-(4-(2,4-dioxotetrahydropyrimidin-1(2H)-yl)-3-methylphenyl)piperidin-4-yl)methyl)piperidin-4-yl)phenyl)amino)-3-(3-(3-methyl-2-oxoimidazolidin-1-yl)piperidin-1-yl)-1,2,4-triazin-6-carboxamide] returned a DC50 at BTK of less than 1 nM. In the test with OCI-LY10 cells, this compound returned an IC50 of 0.63 nM.
